Measured values as given in a melting point compilation (Tetko et al.; mined from patent text by program, amines drawn as free bases though some values may be those of a salt).

SMILES | melting point
CCn1c(C)nc2cc(C(F)(F)F)c(Cl)c(NC)c21 | 116 to 119 °C
Cn1c(=O)c2conc2n(C)c1=O | 170 to 171 °C
O=C(N[C@H](Cc1ccc(C(F)(F)F)cc1)[C@@H](O)c1ccc(Cl)nc1)c1ccc(F)c2ccccc12 (racemic) | 188 to 189 °C
O=C(O)c1cc(OC(F)(F)F)ccc1[N+](=O)[O-] | 90 to 93 °C
O=C(/C=C/c1c(-c2ccc(F)cc2)nc2sccn12)c1ccc2ccccc2c1 | 216 to 218 °C
COC(=O)c1ccc2oc(-c3cc(C)ccc3OC(C)C)cc(=O)c2c1 | 149 to 151 °C
CC(=O)c1ccc(CC2SC(=O)NC2=O)cc1 (stereo not drawn) | 171 to 172 °C
CC(=O)NNc1ccnc2c(NC(=O)c3c(Cl)cccc3Cl)cc(C)cc12 | 263 to 266 °C
CNC(=O)c1cccc(C=O)c1O | 129 to 131 °C
CC(C)C(N)C(=O)NC(Cc1ccccc1)C(O)C(O)C(Cc1ccccc1)NC(=O)C(N)C(C)C (stereo not drawn) | 205 to 207 °C
CC1(C)COC(c2ccccc2C2Oc3cccc(F)c3C(=O)C2=Cc2ccccc2)=N1 (stereo not drawn) | 110 to 112 °C
CC(C(=O)O)(c1ccccc1)c1ccc(O)cc1 (stereo not drawn) | 136 to 137 °C
CNC(=O)c1ccccc1Nc1nc(Nc2ccc3c(c2)CCCCN3C)ncc1Cl | 170 to 172 °C
O=Cc1cn(Cc2ccccc2)nc1OCc1ccccc1 | 85 to 86 °C
CC(C)(C)OC(=O)[C@@H]1CCCN1C[C@@H](O)[C@H](Cc1ccc(F)cc1)NC(=O)[C@H](CC(N)=O)NC(=O)OCc1ccccc1 | 163 to 164 °C
Cc1c(NC(=O)NCC(C)O)c(C)c2c(c1-c1ccccc1)OCC2c1ccc(C(C)C)cc1 (stereo not drawn) | 171 to 182 °C
CCCc1c(OCC#CCSCCO)ccc(C(C)=O)c1O | 52 to 53 °C
Nc1nc(C(F)(F)C(F)(F)F)nn1-c1c(Cl)cc(C(F)(F)F)cc1Cl | 181 to 183 °C
O=C(Cc1ccc(F)cc1F)c1ccc(Cl)nc1 | 93 to 95 °C
Cc1cc(-c2c(-c3ccc(S(C)(=O)=O)cc3)cnn(CC(F)(F)F)c2=O)ccc1F | 88 to 91 °C
Cc1c(O)ccc2c1OCC1c3ccccc3OC21 (stereo not drawn) | 160 to 162 °C
O=C(O)C(c1ccccc1)n1nnc(C(c2ccccc2)c2ccccc2)n1 (stereo not drawn) | 158 to 161 °C
CC(=O)NCC#CCn1ccnc1 | 93 to 95 °C
Cc1ncc(CO)c(CN(C)C)c1O | 146 to 151 °C
CNC(=O)c1c(NC(=O)c2cc(C(F)(F)F)nn2-c2ncccc2Cl)ccc2ncccc12 | 210 to 211 °C

SMILES | melting point
N#Cc1ncn2c1[C@@H]1CCN1C(=O)c1cc(Cl)ccc1-2 | 258 to 261 °C
OCc1c(Cl)cc(Cl)cc1Cl | 100 to 101 °C
Cc1c(S(=O)(=O)N(C)C)c(=O)c2ccc(F)cc2n1C | 244 to 248 °C
CC(C)S(=O)(=O)c1cnc2c(c1)nc(CC(C)(C)C)n2CCN(C)C | 119 °C
N#Cc1cc(Cn2cncn2)ccc1-c1ccc(O)c(Cl)c1 | 195 to 197 °C
CC(C)(C)CC(=O)N[C@H]1CC[C@H](CCN2CCC(c3cccc4c3CCO4)CC2)CC1 | 193 °C
COc1ccc(C2SCCS2)cc1 | 62 to 63 °C
COC(=O)Cc1ccc(CNC(=O)C2Cc3ccccc3N2S(=O)(=O)c2ccc(-c3cccc(C(F)(F)F)c3)cc2)c(Cl)c1 (stereo not drawn) | 124 to 126 °C
CCOc1ccc(-c2ccc(Cl)nn2)c(OCC(O)CNC(C)(C)C)c1 (stereo not drawn) | 115 to 117 °C
Nc1nc(C2CCN(C(=O)c3ccccc3)CC2)c2cc(Cl)ccc2n1 | 155 to 158 °C
COC(=O)c1ncoc1-c1cc(OC)c(OC)c(OC)c1 | 175 to 176 °C
O=C1CCCC2(c3ccccc3)NCCCN12 (stereo not drawn) | 120 °C
O=C(O)Cn1c(-c2ccc(Br)o2)nc2cccnc21 | 229 to 231 °C
COc1ccc2[nH]c(CCN(C)C)c(CSc3ccccc3)c2c1 | 85 to 88 °C
CC1C(=O)Oc2cc(N(Cc3ccccc3)Cc3ccccc3)ccc21 (stereo not drawn) | 111 to 112 °C
CC1(C)CN(c2c(C#N)cnn2-c2ccc(Cl)c(Cl)c2Cl)C1=O | 147 to 149 °C
Oc1ccc2nc(SCCC=C(F)F)oc2c1 | 73.6 to 75.4 °C
COc1cc(Nc2nccc(NC3CCN(Cc4ccccc4)CC3)n2)cc(OC)c1OC | 136 °C
C[C@H](NC(=O)Cc1cc(F)cc(F)c1)C(=O)N[C@@H]1C(=O)Nc2ccccc2S[C@@H]1c1cc(Br)cs1 | 145 to 155 °C
Cc1cc(=O)c(O)c(C(C)O)o1 (stereo not drawn) | 127 to 130 °C
O=C(CC(O)C(=O)O)c1ccc(C(F)(F)F)cc1 (stereo not drawn) | 118 to 120 °C
CCC(CC)N1CCC(CNc2ccc(Cl)cc2C(=O)Nc2ccc(Cl)cn2)CC1 | 136 to 138 °C
Clc1ccc(N2CCN(Cc3n[nH]c4c3CCc3ccccc3-4)CC2)nc1 | 207 to 208 °C
N#CCN1CCC(=C2c3ccccc3CCn3ccnc32)CC1 | 220 °C
CC(C)(O)CCCCCc1ccc(CCc2ccc(O)c(CO)c2)cc1 | 110 to 111 °C

SMILES | melting point
COC1(c2cc(F)cc(Sc3ccc(C(C)=O)cc3)c2)CCOCC1 | 141 °C
COCOc1cc(OC)c(OC)cc1-c1c(C(=O)OC)[nH]c(C(=O)OC)c1-c1ccc(OC)c(OC)c1 | 162 to 163 °C
CCCCCCCCCCNC(=O)C1CSC(c2cccnc2)N1 (stereo not drawn) | 88 °C
COCOc1cc(OCOC)c(C(=O)C=Cc2cc(OC)c(OCOC)c(OC)c2)c(O)c1CC=C(C)C | 91.2 to 92 °C
CC12CCC(O)CC1CCC1C2CCC2(C)C(=O)CCC12O (stereo not drawn) | 214 to 217 °C
CC(C)CN(C=NS(=O)(=O)c1c(Cl)nc2ccc(Cl)nn12)CC(C)C | 151 to 154 °C
Clc1ccc(C(Cn2cncn2)OCc2ccccc2Cl)c(Cl)c1 (stereo not drawn) | 106 °C
O=C(O)c1cccc([N+](=O)[O-])c1SCCO | 91 to 93 °C
CC(C)(COc1ccc(Cl)cc1)C(=O)Cn1cncn1 | 88 to 90 °C
NC(=S)Nc1ccc(C2=NNC(=O)Cc3cc4c(cc32)OCO4)cc1 | 236 to 238 °C
COc1ccc(C(=O)Nc2ccc(OCc3ccccc3)cc2N)cc1C12CC3CC(CC(C3)C1)C2 | 185 °C
CN(C)c1ccc(C(C)(C(=O)O)c2ccc(N(C)C)cc2)cc1 | 152 to 154 °C
NCC1(Cc2ccc(CC(=O)O)cc2)CCC1 | > 255 °C
C#Cc1cn(C2CC(N=[N+]=[N-])C(COC(c3ccccc3)(c3ccccc3)c3ccccc3)O2)c(=O)[nH]c1=O (stereo not drawn) | 110 °C
NC(=O)C(Nc1cccc2c1C(=O)CO2)c1c(Cl)cccc1Cl (stereo not drawn) | 245 °C
N#Cc1cccc(C2=Nc3ccc(-c4cc(F)ccc4F)cc3NC(=O)C2)c1 | 247 °C
OC(CCNCc1ccccc1)(c1ccccc1)c1ccccc1 | 145 to 146 °C
C=C(C)CCC(=O)C(C(=O)OCC)C1c2ccccc2C(=O)N1c1ccc2ccc(Cl)nc2n1 (stereo not drawn) | 125 °C
COc1ccc(-c2nc(Sc3ccc(C)cc3)n(Cc3ccccc3)c2-c2ccc(OC)cc2)cc1 | 115 to 117 °C
CC(=O)OC1CSC(Oc2cccc(-c3cccnc3F)c2)C(OC(C)=O)C1OC(C)=O (stereo not drawn) | 116 °C
CC(C)(C)c1nc(C(N)=S)ncc1O | 169 to 171 °C
CCCN=C(N)Nc1ccnc(C(CCC)C(=N)N)n1 (stereo not drawn) | 202 to 205 °C
ClCCOc1ccccc1OCCCl | 55 to 56.5 °C
OCCCCOc1cccc(/C=C/c2nc3ccccc3s2)c1 | 88 to 90 °C
Nc1ccccc1C(=O)OCN1C(=O)c2ccccc2C1=O | 160 to 162 °C

SMILES | melting point
COc1cc(-c2nc(-n3cccn3)c3c(C)c(C#N)sc3n2)cc(OC)c1OC | 209 to 214 °C
Nn1c(C(F)(F)F)cc(=O)n(-c2cc([N+](=O)[O-])c(Br)cc2F)c1=O | 165 °C
O=c1[nH]c(=O)c2cc(Oc3ccc(F)cc3F)ncc2[nH]1 | > 300 °C
CCOC(=O)C1=C(C)NC(CSc2ncccn2)=C(C(=O)OCC)C1c1cccc([N+](=O)[O-])c1 (stereo not drawn) | 115 to 117 °C
Cc1ccc(Cn2c(=O)c3c(N4CCN(C)CC4)cc(Cl)cc3n(Cc3ccccc3)c2=O)cc1 | 92 to 97 °C
CS(=O)(=O)c1ccc(C(CC2CCCC2)C(=O)Nc2nc3ccccc3s2)cc1C#N (stereo not drawn) | 115 to 118 °C
CCOC(=O)C(=CN(C)c1cnsn1)C(=O)c1cc(F)c(Cl)nc1Cl | 108 to 110 °C
O=c1c2c([nH]n1-c1c(F)cc(Cl)c3nc(Cl)sc13)CCCC2 | 191 to 197 °C
O=C(O)CC(Sc1cccs1)C(=O)O (stereo not drawn) | 136 to 138 °C
C#CC1=CCC2C3CCC4=CC(=O)CCC4C3CCC12C (stereo not drawn) | 148 to 152 °C
CC(=O)NCc1ccc2c(Cl)cn(C3CCN(CCc4ccc(F)cc4)CC3)c2c1 | 101 to 102 °C
CCCCc1nc(Cl)c(CC(=O)O)n1Cc1ccc(OCc2ccccc2C(=O)O)cc1 | 170 to 172 °C
COC(=O)C1(N)CCN(c2ncc3ncnc(Nc4ccc(F)c(Cl)c4)c3n2)CC1 | 182 to 184 °C
COC(=O)[C@@H]1C(=O)CC[C@H]1C(=O)OC (relative stereo) | 49 to 50 °C
CN1C(=O)CCC2(C)c3ccc(Sc4ccccn4)cc3CCC12 (single isomer, unassigned; (+)) | 174 to 176 °C
CCOCOC(CCC(C(=O)NC)C(C)C(O)c1ccccc1)c1ccc(F)cc1 (stereo not drawn) | 91 to 92 °C
O=C(N[C@@H](CO)C(=O)NCCc1ccccc1)c1ccc(C(=O)c2cccnc2)cc1 | 85 to 90 °C
CCCCc1nc2cccc(C(=O)O)c2n1Cc1ccc(-c2ccccc2-c2nnnn2C(c2ccccc2)(c2ccccc2)c2ccccc2)cc1 | 120 to 123 °C
Cc1noc(CC(=O)Oc2ccc(Br)cc2)n1 | 73 to 74 °C
COc1ccc(C(=O)c2cccc(CC(=O)O)c2)cc1 | 138 to 140 °C
COc1ccc(-c2nc(CNC(=O)NC(C)C)sc2-c2ccc(OC)cc2)cc1 | 146 to 149 °C
COc1cccc2c1CC(C(=O)NCc1ccc(C(=O)O)cc1)N2S(=O)(=O)c1ccc(-c2ccc(F)cc2Cl)cc1 (stereo not drawn) | 225 to 234 °C
CCc1[nH]c2cc(C)c(Oc3ccc(OC(F)(F)F)cc3)cc2c(=O)c1C | 281 to 283 °C
